This note sets out measurements from US11286266B2, “1-imidazothiadiazolo-2H-pyrrol-5-one derivatives” (UCB Biopharma SRL, priority 2018, dated 2022).

pKi: −log10 of the molar value. Where “and” joins values, the source holds several entries; their conditions need not be identical. Equal entries are not always repeated.

T1 sequence (Q7L0J3 whole entry): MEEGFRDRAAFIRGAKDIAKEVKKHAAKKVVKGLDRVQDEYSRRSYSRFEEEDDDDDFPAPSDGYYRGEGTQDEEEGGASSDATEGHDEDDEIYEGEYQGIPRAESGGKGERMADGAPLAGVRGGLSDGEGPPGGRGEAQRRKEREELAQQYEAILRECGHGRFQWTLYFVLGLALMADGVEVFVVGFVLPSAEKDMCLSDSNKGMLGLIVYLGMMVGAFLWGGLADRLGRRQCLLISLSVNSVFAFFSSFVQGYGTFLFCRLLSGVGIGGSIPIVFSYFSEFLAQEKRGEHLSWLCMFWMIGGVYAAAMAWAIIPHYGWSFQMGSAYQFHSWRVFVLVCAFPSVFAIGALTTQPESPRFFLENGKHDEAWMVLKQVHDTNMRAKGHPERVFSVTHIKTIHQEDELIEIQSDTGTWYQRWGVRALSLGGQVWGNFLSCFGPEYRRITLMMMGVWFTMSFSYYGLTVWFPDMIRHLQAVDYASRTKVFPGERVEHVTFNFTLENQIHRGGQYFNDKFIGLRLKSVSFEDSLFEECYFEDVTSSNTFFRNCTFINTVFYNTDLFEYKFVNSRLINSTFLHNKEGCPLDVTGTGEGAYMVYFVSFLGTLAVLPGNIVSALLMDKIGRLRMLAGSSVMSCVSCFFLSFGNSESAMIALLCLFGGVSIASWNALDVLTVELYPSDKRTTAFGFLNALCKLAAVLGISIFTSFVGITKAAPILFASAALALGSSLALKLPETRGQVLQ

This assay concerns the target T1, Human SV2A (Homo sapiens, UniProt Q7L0J3).
T1 construct: expressed in transfected cells; host or cells: human embryonic kidney (HEK) cells; membrane preparations
Put plainly: Binding assay to SV2A (radioligand competition, HEK membranes). The conditions noted are these: human SV2A in HEK membranes, 60 min at 37° C., pIC50 corrected to pKi by Cheng and Prusoff. The method, then:
Human SV2A and SV2C proteins were expressed in human embryonic kidney (HEK) cells. HEK SV2A and HEK SV2C membrane preparations were prepared as described in Gillard et al (Eur. J. Pharmacol. 2006, 536, 102-108). To measure affinity of non-labelled compounds, competition experiments were performed as follow: Membranes expressing SV2 proteins (5 to 15 μg proteins per assay) were incubated for 60 min at 37° C. with either [^3H]-2-[4-(3-azidophenyl)-2-oxo-1-pyrrolidinyl]butanamide (5 nM) and/or [^3H]-4R-(2-chloro-2,2-difluoroethyl)-1-{[2-(methoxymethyl)-6-(trifluoromethyl)imidazo[2,1-b][1,3,4]thiadiazol-5-yl]methyl}pyrrolidin-2-one (25 nM) in 0.2 ml of a 50 mM Tris-HCl buffer (pH 7.4) containing 2 mM MgCl2, 0.1% dimethylsulfoxide and ten increasing concentrations of non-labelled test compound (0.1 nM to 10 μM). At the end of the incubation period, the membrane-bound radioligand was recovered by rapid filtration through GF/C glass fiber filters pre-soaked in 0.1% polyethyleneimine. Membranes were washed with at least 4 times the assay volume of ice-cold 50 mM Tris HCl buffer (pH 7.4). The filters were dried and the radioactivity determined by liquid scintillation. […] Measured affinity plC50 values were corrected to pKi according to Cheng and Prusoff (Biochem. Pharmacol. 1973, 22(23), 3099-3108).
As a reminder, the pKi is the Ki on a negative log10 scale, so that one unit is a factor of ten. In turn, `COCc1nn2c(CN3CC(C4CC4(F)F)=CC3=O)c(C(F)(F)F)nc2s1` (single isomer, unassigned) [Example 17-A, 3-(2,2-difluorocyclopropyl)-1-[[2-(methoxymethyl)-6-(trifluoromethyl)imidazo[2,1-b][1,3,4]thiadiazol-5-yl]methyl]-2H-pyrrol-5-one] gave a negative logarithm of the Ki (pKi) of 8.00 to 8.50.

`COCc1nn2c(CN3CC(C4CC4(F)F)=CC3=O)c(C)nc2s1` (single isomer, unassigned) [Example 18-A, 1-[[2-(methoxymethyl)-6-methyl-imidazo[2,1-b][1,3,4]thiadiazol-5-yl]methyl]-3-[2,2-difluorocyclopropyl]-2H-pyrrol-5-one] gave a pKi of 7.50 to 8.00.

The compound `COCc1nn2c(CN3CC(C4CC4(F)F)=CC3=O)c(C)nc2s1` (single isomer, unassigned) [Example 18-B, 1-[[2-(methoxymethyl)-6-methyl-imidazo[2,1-b][1,3,4]thiadiazol-5-yl]methyl]-3-[2,2-difluorocyclopropyl]-2H-pyrrol-5-one] had a negative-log Ki (pKi) of 6.50 to 7.50.

In turn, `COCc1nn2c(CN3CC(C4CC4(F)F)=CC3=O)c(C(F)F)nc2s1` (single isomer, unassigned) [Example 19-A, 1-[[6-(difluoromethyl)-2-(methoxymethyl)imidazo[2,1-b][1,3,4]thiadiazol-5-yl]methyl]-3-[2,2-difluorocyclopropyl]-2H-pyrrol-5-one] gave a pKi of 8.00 to 8.50.

`CCCC1=CC(=O)N(Cc2c(C(F)(F)F)nc3sc(COC)nn23)C1` [Example 1, 1-[[2-(methoxymethyl)-6-(trifluoromethyl)imidazo[2,1-b][1,3,4]thiadiazol-5-yl]methyl]-3-propyl-2H-pyrrol-5-one] showed a negative-log Ki (pKi) of 8.00 to 8.50.

On to `COCc1nn2c(CN3CC(CC(F)(F)F)=CC3=O)c(C(F)(F)F)nc2s1` [Example 2, 1-[[2-(methoxymethyl)-6-(trifluoromethyl)imidazo[2,1-b][1,3,4]thiadiazol-5-yl]methyl]-3-(2,2,2-trifluoroethyl)-2H-pyrrol-5-one], for which the pKi is 7.50 to 8.00.

Compound `COCc1nn2c(CN3CC(CCC(F)(F)F)=CC3=O)c(C(F)(F)F)nc2s1` [Example 3, 1-[[2-(methoxymethyl)-6-(trifluoromethyl)imidazo[2,1-b][1,3,4]thiadiazol-5-yl]methyl]-3-(3,3,3-trifluoropropyl)-2H-pyrrol-5-one] showed a pKi of 8.00 to 8.50.

`CCCC1=CC(=O)N(Cc2c(C)nc3sc(COC)nn23)C1` [Example 4, 1-[[2-(methoxymethyl)-6-methyl-imidazo[2,1-b][1,3,4]thiadiazol-5-yl]methyl]-3-propyl-2H-pyrrol-5-one] showed a negative logarithm of the Ki (pKi) of 8.00 to 8.50.

`COCc1nn2c(CN3CC(CC(F)(F)F)=CC3=O)c(Cl)nc2s1` [Example 5, 1-[[6-chloro-2-(methoxymethyl)imidazo[2,1-b][1,3,4]thiadiazol-5-yl]methyl]-3-(2,2,2-trifluoroethyl)-2H-pyrrol-5-one] showed a pKi of 7.50 to 8.00.

In turn, `CCCC1=CC(=O)N(Cc2c(Cl)nc3sc(COC)nn23)C1` [Example 6, 1-[[6-chloro-2-(methoxymethyl)imidazo[2,1-b][1,3,4]thiadiazol-5-yl]methyl]-3-propyl-2H-pyrrol-5-one] had a pKi of 8.00 to 8.50.

On to `COCc1nn2c(CN3CC(CCC(F)(F)F)=CC3=O)c(Cl)nc2s1` [Example 7, 1-[[6-chloro-2-(methoxymethyl)imidazo[2,1-b][1,3,4]thiadiazol-5-yl]methyl]-3-(3,3,3-trifluoropropyl)-2H-pyrrol-5-one], for which the pKi is 8.00 to 8.50.

As for `CCCC1=CC(=O)N(Cc2c(C(F)F)nc3sc(COC)nn23)C1` [Example 8, 1-[[6-(difluoromethyl)-2-(methoxymethyl)imidazo[2,1-b][1,3,4]thiadiazol-5-yl]methyl]-3-propyl-2H-pyrrol-5-one], the negative logarithm of the Ki (pKi) was 8.00 to 8.50.

`COCc1nn2c(CN3CC(CC(F)(F)F)=CC3=O)c(C)nc2s1` [Example 9, 1-[[2-(methoxymethyl)-6-methyl-imidazo[2,1-b][1,3,4]thiadiazol-5-yl]methyl]-3-(2,2,2-trifluoroethyl)-2H-pyrrol-5-one] showed a pKi of 8.00 to 8.50.

As for `COCc1nn2c(CN3CC(CC(F)(F)F)=CC3=O)c(C(F)F)nc2s1` [Example 10, 1-[[6-(difluoromethyl)-2-(methoxymethyl)imidazo[2,1-b][1,3,4]thiadiazol-5-yl]methyl]-3-(2,2,2-trifluoroethyl)-2H-pyrrol-5-one], the pKi was 8.00 to 8.50.

With `COCc1nn2c(CN3CC(CC(F)(F)F)=CC3=O)c(C3(F)CC3)nc2s1` [Example 11, 1-[[6-(1-fluorocyclopropyl)-2-(methoxymethyl)imidazo[2,1-b][1,3,4]thiadiazol-5-yl]methyl]-3-(2,2,2-trifluoroethyl)-2H-pyrrol-5-one], the negative-log Ki (pKi) was 7.50 to 8.00 and 8.00 to 8.50.

For the compound `COCc1nn2c(CN3CC(CC(F)(F)Cl)=CC3=O)c(C(F)(F)F)nc2s1` [Example 12, 3-(2-chloro-2,2-difluoro-ethyl)-1-[[2-(methoxymethyl)-6-(trifluoromethyl)imidazo[2,1-b][1,3,4]thiadiazol-5-yl]methyl]-2H-pyrrol-5-one], the pKi is 8.00 to 8.50.

Compound `COCc1nn2c(CN3CC(CCC(F)(F)F)=CC3=O)c(C)nc2s1` [Example 13, 1-[[2-(methoxymethyl)-6-methyl-imidazo[2,1-b][1,3,4]thiadiazol-5-yl]methyl]-3-(3,3,3-trifluoropropyl)-2H-pyrrol-5-one] showed a negative logarithm of the Ki (pKi) of 8.00 to 8.50.

The compound `COCc1nn2c(CN3CC(CCC(F)(F)F)=CC3=O)c(C(F)F)nc2s1` [Example 14, 1-[[6-(difluoromethyl)-2-(methoxymethyl)imidazo[2,1-b][1,3,4]thiadiazol-5-yl]methyl]-3-(3,3,3-trifluoropropyl)-2H-pyrrol-5-one] showed a negative logarithm of the Ki (pKi) of 8.00 to 8.50.

`COCc1nn2c(CN3CC(CC(C)(F)F)=CC3=O)c(C(F)(F)F)nc2s1` [Example 15, 3-(2,2-difluoropropyl)-1-[[2-(methoxymethyl)-6-(trifluoromethyl)imidazo[2,1-b][1,3,4]thiadiazol-5-yl]methyl]-2H-pyrrol-5-one] had a pKi of 8.00 to 8.50.

As for `COCc1nn2c(CN3CC(CC(C)(F)F)=CC3=O)c(C(F)F)nc2s1` [Example 16, 1-[[6-(difluoromethyl)-2-(methoxymethyl)imidazo[2,1-b][1,3,4]thiadiazol-5-yl]methyl]-3-(2,2-difluoropropyl)-2H-pyrrol-5-one], the pKi is 8.00 to 8.50.

`COCc1nn2c(CN3CC(CC(C)(F)F)=CC3=O)c(C)nc2s1` [Example 20, 3-(2,2-difluoropropyl)-1-[[2-(methoxymethyl)-6-methyl-imidazo[2,1-b][1,3,4]thiadiazol-5-yl]methyl]-2H-pyrrol-5-one]: the pKi is 7.50 to 8.00.

As for `Cc1nc2sc(CO)nn2c1CN1CC(CCC(F)(F)F)=CC1=O` [Example 21, 1-[[2-(hydroxymethyl)-6-methyl-imidazo[2,1-b][1,3,4]thiadiazol-5-yl]methyl]-3-(3,3,3-trifluoropropyl)-2H-pyrrol-5-one], the negative-log Ki (pKi) was 6.50 to 7.50.

For `O=C1C=C(CCC(F)(F)F)CN1Cc1c(C(F)F)nc2sc(CO)nn12` [Example 22, 1-[[6-(difluoromethyl)-2-(hydroxymethyl)imidazo[2,1-b][1,3,4]thiadiazol-5-yl]methyl]-3-(3,3,3-trifluoropropyl)-2H-pyrrol-5-one], the negative-log Ki (pKi) is 6.50 to 7.50.

`O=C1C=C(CC(F)(F)F)CN1Cc1c(C(F)F)nc2sc(CO)nn12` [Example 23, 1-[[6-(difluoromethyl)-2-(hydroxymethyl)imidazo[2,1-b][1,3,4]thiadiazol-5-yl]methyl]-3-(2,2,2-trifluoroethyl)-2H-pyrrol-5-one] gave a pKi of 6.50 to 7.50.
